Test results reported in ChEMBL document CHEMBL1201862, “PubChem BioAssay data set” (2004).
Several values for one entry are separate records, joined by “and”; a condition that tells them apart may be missing. Equal values may be shown once.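 Grown in 96-well plates, cells were treated for 48 hours with each compound at five concentrations. Insufficient inhibition: endpoint recorded as highest concentration tested. Abbreviation: GI50, concentration required for 50% inhibition of growth.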 Activity calls are given as the source filed them. Rule as the data show it: active = GI50 up to about 1.1 µM and inactive = higher.

Experiments:
Assay in all cases: NCI-60 cell line screen, 48 h
HL-60 = system: HL-60
LOX IMVI = system: LOX IMVI
SR = system: SR
NCI-H23 = system: NCI-H23
Malme-3M = system: Malme-3M
MOLT-4 = system: MOLT-4
CCRF-CEM = system: CCRF-CEM
NCI/ADR-RES = system: NCI/ADR-RES
UACC-62 = system: UACC-62
RPMI-8226 = system: RPMI-8226
SF-268 = system: SF-268
M14 = system: M14
SNB-19 = system: SNB-19
HT-29 = system: HT-29
SK-MEL-28 = system: SK-MEL-28
SF-539 = system: SF-539
SW-620 = system: SW-620
786-0 = system: 786-0
MDA-MB-435 = system: MDA-MB-435
ACHN = system: ACHN
SK-MEL-5 = system: SK-MEL-5
HCT-116 = system: HCT-116
MDA-MB-231 = system: MDA-MB-231
UO-31 = system: UO-31
MCF7 = system: MCF7
MDA-N = system: MDA-N
EKVX = system: EKVX
A498 = system: A498
HOP-92 = system: HOP-92
OVCAR-5 = system: OVCAR-5
U-251 = system: U-251
CAKI-1 = system: CAKI-1
NCI-H226 = system: NCI-H226
Hs-578T = system: Hs-578T
KM12 = system: KM12
COLO 205 = system: COLO 205
A549 = system: A549
OVCAR-4 = system: OVCAR-4
UACC-257 = system: UACC-257
SF-295 = system: SF-295
TK-10 = system: TK-10
PC-3 = system: PC-3
SN12C = system: SN12C
IGROV-1 = system: IGROV-1
K562 = system: K562
DU-145 = system: DU-145
SK-MEL-2 = system: SK-MEL-2
OVCAR-8 = system: OVCAR-8
T47D = system: T47D
HOP-62 = system: HOP-62
NCI-H460 = system: NCI-H460
OVCAR-3 = system: OVCAR-3
HCC 2998 = system: HCC 2998
HCT-15 = system: HCT-15
SNB-75 = system: SNB-75
SK-OV-3 = system: SK-OV-3
NCI-H522 = system: NCI-H522

Measured: GI50

CC1=CC(=O)CC2(C)CCC(C(C)CC(=O)CC(C)C)CC12OO (centres undefined)
inactive: HL-60 1.83 µM and 1.87 µM | LOX IMVI 14.6 µM and 16.4 µM | SR 18.5 µM and 20.6 µM | NCI-H23 16.5 µM and 19.9 µM | Malme-3M 29.8 µM and 16.7 µM | MOLT-4 14.8 µM and 15.8 µM | CCRF-CEM 20.7 µM and 19.6 µM | NCI/ADR-RES 24.8 µM and 23.1 µM | UACC-62 20.8 µM and 17.6 µM | RPMI-8226 16.6 µM and 12.5 µM | SF-268 17 µM and 20 µM | M14 16.5 µM and 17.9 µM | SNB-19 > 100 µM and 95.5 µM | HT-29 17 µM and 20.7 µM | SK-MEL-28 18.5 µM and 15.2 µM | SF-539 16.4 µM and 15.2 µM | SW-620 19 µM and 17.3 µM | 786-0 10.1 µM and 13.1 µM | MDA-MB-435 17.5 µM and 18.3 µM | ACHN 17.6 µM and 17.1 µM | SK-MEL-5 15.7 µM and 21 µM | HCT-116 16.2 µM and 16.1 µM | MDA-MB-231 15.1 µM and 18.5 µM | UO-31 19.9 µM and 16.2 µM | MCF7 16.9 µM and 17.2 µM | MDA-N 18.8 µM and 18.1 µM | EKVX 17.9 µM and 19.9 µM | A498 22.4 µM and 16.9 µM | HOP-92 15.9 µM and 18 µM | OVCAR-5 19.9 µM and 19.4 µM | U-251 19 µM and 17.6 µM | CAKI-1 19.3 µM | NCI-H226 18.3 µM and 18.7 µM | Hs-578T 46.9 µM and 28.4 µM | KM12 15.6 µM and 16.9 µM | COLO 205 18.8 µM and 14.3 µM | A549 16.7 µM and 15.4 µM | OVCAR-4 27.7 µM and 16 µM | UACC-257 17.7 µM and 17.3 µM | SF-295 16.4 µM and 17 µM | TK-10 19.3 µM and 18.7 µM | PC-3 14.3 µM and 15.7 µM | SN12C 17.6 µM and 18.7 µM | IGROV-1 15 µM and 20 µM | K562 10.9 µM and 5.53 µM | DU-145 18 µM and 16 µM | SK-MEL-2 16.9 µM and 20.2 µM | OVCAR-8 19.2 µM and 27.7 µM

CC1(C)C(=S)C(C)(C)C1=S
inactive: LOX IMVI > 100 µM | SR > 100 µM | NCI-H23 > 100 µM | Malme-3M > 100 µM | T47D > 100 µM | HOP-62 > 100 µM | MOLT-4 > 100 µM | NCI-H460 > 100 µM | OVCAR-3 > 100 µM | NCI/ADR-RES > 100 µM | UACC-62 > 100 µM | HCC 2998 > 100 µM | RPMI-8226 > 100 µM | SF-268 > 100 µM | M14 > 100 µM | SNB-19 > 100 µM | HT-29 > 100 µM | SK-MEL-28 > 100 µM | SF-539 > 100 µM | SW-620 > 100 µM | 786-0 > 100 µM | MDA-MB-435 > 100 µM | ACHN > 100 µM | SK-MEL-5 > 100 µM | HCT-116 > 100 µM | MDA-MB-231 > 100 µM | UO-31 > 100 µM | MCF7 > 100 µM | MDA-N > 100 µM | SNB-75 > 100 µM | EKVX > 100 µM | OVCAR-5 > 100 µM | U-251 > 100 µM | SK-OV-3 > 100 µM | NCI-H226 > 100 µM | Hs-578T > 100 µM | KM12 > 100 µM | COLO 205 > 100 µM | A549 > 100 µM | OVCAR-4 > 100 µM | UACC-257 > 100 µM | TK-10 > 100 µM | PC-3 > 100 µM | SN12C > 100 µM | IGROV-1 > 100 µM | K562 > 100 µM | DU-145 > 100 µM | SK-MEL-2 > 100 µM
> 100 µM: HCT-15

COc1cc(/C=C2\CN(C)CC3=C2N=C(S)NC3c2cc(OC)c(OC)c(OC)c2)cc(OC)c1OC (centres undefined)
80.2 µM: HCT-15
inactive: LOX IMVI 36.2 µM | SR > 100 µM | Malme-3M > 100 µM | T47D > 100 µM | HOP-62 69.7 µM | MOLT-4 57.4 µM | NCI-H460 54.5 µM | OVCAR-3 > 100 µM | NCI/ADR-RES > 100 µM | UACC-62 20.9 µM | SF-268 94.4 µM | M14 51.2 µM | HT-29 67.9 µM | SW-620 > 100 µM | 786-0 39.2 µM | ACHN 91.2 µM | SK-MEL-5 17.9 µM | MDA-MB-231 61.9 µM | NCI-H522 54.7 µM | MDA-N 50.2 µM | SNB-75 28.6 µM | EKVX 32.6 µM | HOP-92 > 100 µM | SK-OV-3 > 100 µM | Hs-578T 30.5 µM | COLO 205 79.8 µM | A549 49.9 µM | OVCAR-4 56 µM | UACC-257 > 100 µM | SF-295 65.5 µM | PC-3 38.3 µM | SN12C 67.9 µM | IGROV-1 71.8 µM | DU-145 > 100 µM | SK-MEL-2 > 100 µM | OVCAR-8 83.2 µM
